According to ChEMBL document CHEMBL3399957, “Synthesis and SAR studies of analogues of 4-(3,3-dimethyl-butyrylamino)-3,5-difluoro-N-thiazol-2-yl-benzamide (Lu AA41063) as adenosine A2A receptor ligands with improved aqueous solubility” (Bioorg Med Chem Lett, 2015):
In brackets after ≈: the same amount, converted by molar mass.

What was measured:
[1] = Intrinsic clearance in human liver microsomes; assay type: ADME; conditions: read-out: CLH (converted)
Cytochrome P450 1A2 = molecular target: T1, Cytochrome P450 1A2 (Homo sapiens, UniProt P05177); assay: Inhibition of CYP1A2 (unknown origin); assay type: ADME
T1 sequence (P05177 whole entry): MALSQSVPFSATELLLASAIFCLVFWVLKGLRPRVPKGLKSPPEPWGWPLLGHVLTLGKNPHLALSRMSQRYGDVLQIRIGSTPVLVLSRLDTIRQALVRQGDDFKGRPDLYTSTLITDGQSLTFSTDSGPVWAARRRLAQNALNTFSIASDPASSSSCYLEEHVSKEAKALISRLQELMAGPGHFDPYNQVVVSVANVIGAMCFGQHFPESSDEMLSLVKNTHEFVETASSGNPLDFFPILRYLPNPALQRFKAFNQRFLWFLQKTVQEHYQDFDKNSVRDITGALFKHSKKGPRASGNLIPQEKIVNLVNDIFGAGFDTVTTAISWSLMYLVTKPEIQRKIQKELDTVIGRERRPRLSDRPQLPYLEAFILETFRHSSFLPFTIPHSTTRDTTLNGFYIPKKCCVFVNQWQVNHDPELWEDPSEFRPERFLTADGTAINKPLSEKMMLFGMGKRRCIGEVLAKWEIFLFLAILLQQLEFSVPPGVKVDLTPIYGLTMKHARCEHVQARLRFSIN

Cytochrome P450 3A4 = Cytochrome P450 3A4 (Homo sapiens, UniProt P08684); assay: Inhibition of CYP3A4 (unknown origin); assay type: ADME
Cytochrome P450 2C9 = Cytochrome P450 2C9 (Homo sapiens, UniProt P11712); assay: Inhibition of CYP2C9 (unknown origin); assay type: ADME
Cytochrome P450 2C19 = Cytochrome P450 2C19 (Homo sapiens, UniProt P33261); assay: Inhibition of CYP2C19 (unknown origin); assay type: ADME
[2] = Aqueous solubility of the compound at pH 7.4; assay type: physicochemical; conditions: buffer
Adenosine receptor A2a [3] = molecular target: T2, Adenosine receptor A2a (Homo sapiens, UniProt P29274); assay: Antagonist activity at human adenosine A2A receptor
Cytochrome P450 2D6 = Cytochrome P450 2D6 (Homo sapiens, UniProt P10635); assay: Inhibition of CYP2D6 (unknown origin); assay type: ADME
[4] = Aqueous solubility of the compound; assay type: physicochemical; conditions: buffer
Adenosine receptor A2a [5] = molecular target: T2, Adenosine receptor A2a; assay: Displacement of radioligand from human adenosine A2A receptor at 1000 nM relative to control

T2 sequence (P29274 whole entry): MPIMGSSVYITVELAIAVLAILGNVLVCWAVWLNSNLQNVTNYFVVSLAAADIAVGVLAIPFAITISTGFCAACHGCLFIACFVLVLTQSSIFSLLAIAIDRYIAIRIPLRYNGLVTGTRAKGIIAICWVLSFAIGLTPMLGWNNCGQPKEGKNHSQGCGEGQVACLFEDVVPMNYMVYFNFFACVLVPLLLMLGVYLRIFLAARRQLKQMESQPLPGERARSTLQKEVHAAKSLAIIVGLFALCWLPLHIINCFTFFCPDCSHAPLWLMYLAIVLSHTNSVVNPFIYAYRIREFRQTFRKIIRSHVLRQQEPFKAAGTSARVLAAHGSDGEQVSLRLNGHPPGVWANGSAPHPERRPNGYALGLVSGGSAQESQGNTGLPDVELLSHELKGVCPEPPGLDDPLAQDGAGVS
Cytochrome P450 2C19, sequence (P33261 whole entry): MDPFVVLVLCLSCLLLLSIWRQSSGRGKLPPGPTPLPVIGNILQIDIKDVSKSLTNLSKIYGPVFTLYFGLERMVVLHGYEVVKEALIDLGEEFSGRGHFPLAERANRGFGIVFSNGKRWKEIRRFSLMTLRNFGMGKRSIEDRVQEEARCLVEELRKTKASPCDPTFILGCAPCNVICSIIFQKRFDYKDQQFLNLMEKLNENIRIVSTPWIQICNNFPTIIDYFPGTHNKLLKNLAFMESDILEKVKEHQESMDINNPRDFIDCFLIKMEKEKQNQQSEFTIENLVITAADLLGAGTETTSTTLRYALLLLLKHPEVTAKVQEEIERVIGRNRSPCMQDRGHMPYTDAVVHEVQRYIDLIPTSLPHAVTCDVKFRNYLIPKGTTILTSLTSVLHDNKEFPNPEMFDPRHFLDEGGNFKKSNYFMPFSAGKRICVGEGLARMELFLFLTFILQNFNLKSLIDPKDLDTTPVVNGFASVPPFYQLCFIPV
Cytochrome P450 3A4, sequence (P08684 whole entry): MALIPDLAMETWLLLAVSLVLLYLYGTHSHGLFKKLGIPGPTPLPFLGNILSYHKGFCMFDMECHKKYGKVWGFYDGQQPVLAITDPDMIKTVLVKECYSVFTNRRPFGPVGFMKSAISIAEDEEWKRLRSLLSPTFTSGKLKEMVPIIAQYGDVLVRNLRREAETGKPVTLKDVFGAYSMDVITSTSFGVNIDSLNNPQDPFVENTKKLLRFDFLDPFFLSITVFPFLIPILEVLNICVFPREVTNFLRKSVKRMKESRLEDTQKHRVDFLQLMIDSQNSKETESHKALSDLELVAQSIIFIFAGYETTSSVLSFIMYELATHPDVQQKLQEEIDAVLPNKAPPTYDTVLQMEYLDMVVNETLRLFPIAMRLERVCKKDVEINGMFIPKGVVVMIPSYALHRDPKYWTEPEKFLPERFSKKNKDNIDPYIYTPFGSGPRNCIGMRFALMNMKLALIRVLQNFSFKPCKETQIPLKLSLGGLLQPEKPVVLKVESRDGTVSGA
Cytochrome P450 2C9, sequence (P11712 whole entry): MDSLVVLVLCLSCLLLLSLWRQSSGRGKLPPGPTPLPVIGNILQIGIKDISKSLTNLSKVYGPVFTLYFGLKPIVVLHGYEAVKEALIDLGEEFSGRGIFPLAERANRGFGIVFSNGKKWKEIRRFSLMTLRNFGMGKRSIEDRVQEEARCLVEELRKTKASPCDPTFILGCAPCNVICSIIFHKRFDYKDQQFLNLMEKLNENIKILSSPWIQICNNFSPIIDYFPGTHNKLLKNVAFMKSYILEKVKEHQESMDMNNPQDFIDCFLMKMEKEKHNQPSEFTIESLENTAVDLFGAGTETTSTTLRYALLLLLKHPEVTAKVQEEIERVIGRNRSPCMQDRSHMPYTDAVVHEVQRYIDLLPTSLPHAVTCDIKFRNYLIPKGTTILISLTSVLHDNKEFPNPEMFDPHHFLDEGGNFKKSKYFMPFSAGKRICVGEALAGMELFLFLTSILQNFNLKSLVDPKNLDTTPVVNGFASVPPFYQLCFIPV
Cytochrome P450 2D6, sequence (P10635 whole entry): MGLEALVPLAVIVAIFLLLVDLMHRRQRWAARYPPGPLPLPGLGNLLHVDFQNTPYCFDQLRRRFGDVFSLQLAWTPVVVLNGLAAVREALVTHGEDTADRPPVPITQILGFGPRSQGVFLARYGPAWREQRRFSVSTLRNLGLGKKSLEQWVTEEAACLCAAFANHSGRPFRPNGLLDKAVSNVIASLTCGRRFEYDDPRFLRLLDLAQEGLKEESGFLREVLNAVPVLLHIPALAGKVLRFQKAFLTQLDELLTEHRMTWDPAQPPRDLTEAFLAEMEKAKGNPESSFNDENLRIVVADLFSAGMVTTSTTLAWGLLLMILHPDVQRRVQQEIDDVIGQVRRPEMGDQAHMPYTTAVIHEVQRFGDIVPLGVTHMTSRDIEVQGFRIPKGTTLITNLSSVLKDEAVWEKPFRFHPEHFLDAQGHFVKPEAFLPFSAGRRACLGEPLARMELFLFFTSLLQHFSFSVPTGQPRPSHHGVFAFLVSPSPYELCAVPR

| Ki (Adenosine receptor A2a [3]) [nM] | SMILES | other results |
| --- | --- | --- |
| 300 | CC(C)(C)CC(=O)Nc1ccc(C(=O)Nc2nccs2)nc1 | solubility [4]: 10 µg/mL (≈ 31.4 µM) |
| 130 | CCN(CC)CCCCCCCC(=O)Nc1ccc(C(=O)Nc2nccs2)cc1 | – |
| 730 | CC(C)CCNc1ccc(C(=O)Nc2nccs2)cc1 | – |
| 59 | CC(C)CC(=O)Nc1ccc(C(=O)Nc2nccs2)cc1 | – |
| 830 | CCN(CC)CCCCC(=O)Nc1ccc(C(=O)Nc2nccs2)cc1 | – |
| 6600 | O=C(CC1CCCN1)Nc1ccc(C(=O)Nc2nccs2)cc1 (centres undefined) | – |

Further lines, the compound ahead of its results:

| SMILES | Ki (Adenosine receptor A2a [3]) [nM] | other results |
| --- | --- | --- |
| CC(CCN1CCOCC1)CC(=O)Nc1ccc(C(=O)Nc2nccs2)cc1 (centres undefined) | 110 | CLint scaled [1]: 10.3 mL/min/kg; IC50 (Cytochrome P450 1A2): > 40 µM; IC50 (Cytochrome P450 3A4): > 40 µM; IC50 (Cytochrome P450 2C9): > 40 µM; IC50 (Cytochrome P450 2C19): > 40 µM; solubility [2]: 116 µg/mL (≈ 288 µM); IC50 (Cytochrome P450 2D6): 18 µM |
| CCN(CC)CCC(C)CC(=O)Nc1ccc(C(=O)Nc2nccs2)cc1 (centres undefined) | 110 | – |
| O=C(CC1CCCC1)Nc1ccc(C(=O)Nc2nccs2)cc1 | 67 | – |
| Cc1cc(C(=O)Nc2nccs2)ccc1NC(=O)CC(C)(C)C | 67 | – |
| CC(C)(C)CC(=O)Nc1ccc(CNc2nccs2)cc1 | > 6000 | – |
| CCN(CC)CCCCCC(=O)Nc1ccc(C(=O)Nc2nccs2)cc1 | 240 | – |
| Cc1cc(C(=O)Nc2nccs2)ccc1NC(=O)CN(C)C | – | inhibition (Adenosine receptor A2a [5]): 1% |
| CC(C)(C)CC(=O)Nc1ccc(C(=O)Nc2nccs2)cn1 | – | inhibition (Adenosine receptor A2a [5]): 30% |
| CC(C)(O)CC(=O)Nc1ccc(C(=O)Nc2nccs2)cc1 | 1100 | – |
| O=C(CC1CCNC1)Nc1ccc(C(=O)Nc2nccs2)cc1 (centres undefined) | > 2100 | – |
